# Test results as given in patent US20140332384A1, “BIOMARKERS RELATED WITH A SUPRA-N[…] STATE OF SELENIUM AND DIAGNOSIS METHOD IN WHICH SAID […] IDENTIFIED” (UNIVERSIDAD DE SANTIAGO DE CHILE, priority 2011, published 2014).
# Where “and” joins values, the source holds several entries; their conditions need not be identical. Identical values can stand only once.
# How the values were obtained:
# [1] = cited from earlier work
# [2] = Growth of rats based on their body weight; conditions: 10 weeks; for Final body weight: in g (unit assumed)
# Description: As illustrated in the various embodiments and examples provided herein, the protein pattern was obtained using blood plasma from Wistar rats, bred in three groups of 8 rats, 21 days of age (4 females and 4 males) each. […] The animals had free access to deionized water and received the respective diet ad libitum. […]
# The animals were kept in stainless steel cages at a controlled temperature equal to 20° C., using 12 hours day/night cycles. After the experimental period (10 weeks), blood samples were collected from each animal by cardiac punction, using standard protocols in heparin tubes. The tubes were inverted 10 times, and immediately placed in an ice bath. The tubes were centrifuged at 1300 RCF at 4° C. during 10 minutes. The plasma was separated from the solids. The supernatant was transferred to a fresh centrifuge tube and was centrifuged at 2400 RCF at 4° C. for 15 minutes. Finally, plasma samples were stored at −80° C. until they were analysed.
# The growth of rats for each group was controlled.
# [3] = test system: blood plasma proteins of basic isoelectric point (bands R-2 to R-15); test: Protein pattern of blood plasma of an individual treated with dietary supplement seleno methylselenocysteine (Example 2); assay type: in vivo
# Text: The samples must pass through the stages A and B as described in the preparation of the pattern.
# Step C: Comparing the protein pattern of the reference.
# It compares the SDS-PAGE gel of the sample collected and treated with the protein pattern characteristic of a supranutritional intake of a trace element, in this case, the organic form of selenium as provided in seleno-methyl-selenocysteine, and evaluating the presence of the same bands and its relative abundance in each of the bands.
# A statistical analysis (t-Student with an interval of 95%) is performed to detect significant differences between the relative abundance of the corresponding protein bands between the sample and pattern.
# A sample of plasma from an individual who has undergone treatment with a nutritional dietary supplement seleno methylselenocysteine. This plasma sample was subject to the methodology described above, and the following were the results.
# For comparison, Student's t-test with a confidence interval of 95% confidence was used. […] The interpretation of the results, based on the methodology would be as follows.
# [4] = test system: blood plasma proteins of basic isoelectric point (bands R-2 to R-15); test: Protein pattern of blood plasma proteins of basic isoelectric point (SDS-PAGE, densitometry) in rats fed supplemented diets; assay type: in vivo, Wistar rats
# Description: The plasma was separated from the solids.
# For the preparation of the pattern used, individual plasma samples were analyzed by SDS electrophoresis in polyacrylamide gel according to standard protocols. Prior to electrophoretic analysis, plasma samples were fractioned by “batch” adsorption using an ion exchange resin at pH 7.5. The adsorbed fraction was recovered and analyzed by SDS polyacrylamide gel.
# A calibration curve was prepared loading five solutions of different concentrations (0, 0.4, 0.6, 0.8, and 1 mg/ml) [XAOG1]·[A2] of bovine serum albumin (as protein standard) in a polyacrylamide gel, and performing SDS-PAGE analysis under the same conditions and with the same protocol as used to analyse the plasma samples. In each lane a single major band was detected, and between the each lane different band intensity was observed due to the different concentration of the protein loaded (FIGS. 2-5). The optical density of each band was determined, as the protein concentration was known in each solution loaded in the different lanes, a linear equation was drawn which correlates the concentration with the intensity of the bands.
# The concentration of protein was quantified in each band via optical densitometry and subsequent interpolation in the calibration curve. The concentration average and standard deviation for each band was calculated, considering the 8 samples of each group (controls and experimental). A comparison was made using the Student statistical t-test with a confidence interval 95% to detect significant differences in each band between the experimental and control groups.
# The reference pattern for protein corresponds to the set of plasma proteins of basic isoelectric point obtained and separated by the following methodology.
# Stage A: Chromatographic Fractionation of Plasma Proteins Basic Isoelectric Point.
# 1. Resuspend the cationic exchange resin, carefully turning the package containing the resin. When total homogenization is achieved, a certain volume of suspension is taken, between 50 and 500 μL, preferably between 50 and 200 μL, more preferably 100 μL.
# 2. Mix in a microcentrifuge tube around 50 to 500 μL, preferably between 50 and 200 μL, more preferably 100 μL of plasma with a 1:9 proportional amount of buffer pH 7.5, until a ionic strength equal to 0.1M, is attained, this is if you take 100 μL of plasma, 900 μL buffer must be added to achieve a 1:10 dilution, and obtain a plasma protein solution with an ionic strength equivalent to 0.09 to 0.1M of NaCl.
# 3. To prepare the cationic exchange resin, it is necessary to decant the resin from the original suspension volume, discarding the supernatant and washing the resin by adding an amount equivalent to the discarded supernatant buffer pH 7.5 plus 0.1M NaCl, repeating the procedure 3 times.
# The protein sample obtained from stage 2 is added and mixed gently homogenizing it for 30 minutes and the resin is separated from the supernatant, the supernatant is discarded and the resin is washed with the same volume of pH 7.5 buffer plus 0.1M NaCl, three times. The adsorbed proteins are eluted by adding a suitable volume, preferably between 40 and 80 μL, more preferably 50 µL of pH 7.5 buffer over 1M NaCl, homogenized, the resin is separated from the supernatant, and finally supernatant is recuperated, which corresponds to the fraction of plasma proteins with a basic isoelectric point.
# Stage B: Electrophoretic separation of plasma proteins of a basic isoelectric point.
# A 12% polyacrylamide gel is prepared, according to standard protocols. A 20 μl of the sample obtained in item 3 and 5 μL of loading buffer (standard composition for SDS analysis) is subject to denaturation by heat. The denatured mixture is loaded into a lane and the electrophoretic run is performed, for a total of 160 Vh. The electrophoresis system is disassembled and the gel is recovered. […]
# [5] = SMSeC (1.9 μg) diet, females, average
# [6] = SMSeC (1.9 μg) diet, females, individual rats
# [7] = SMSeC (1.9 μg) diet, group average
# [8] = SMSeC (1.9 μg) diet, males, average
# [9] = SMSeC (1.9 μg) diet, males, individual rats
# [10] = rat blood plasma, basic isoelectric point fraction, diet with 1.9 μg SMSeC per gram, 10 weeks, average ± standard deviation, [UA] in Tables 4, 5
# [11] = rats fed 1.9 μg seleno-methyl-selenocysteine per g of diet, Student t-test, confidence interval 95%
# [12] = Sodium Selenate (1.5 μg) diet, females, average
# [13] = Sodium Selenate (1.5 μg) diet, females, individual rats
# [14] = Sodium Selenate (1.5 μg) diet, group average
# [15] = Sodium Selenate (1.5 μg) diet, males, average
# [16] = Sodium Selenate (1.5 μg) diet, males, individual rats
# [17] = Sodium Selenate (1.9 μg) diet, females, average
# [18] = Sodium Selenate (1.9 μg) diet, females, individual rats
# [19] = Sodium Selenate (1.9 μg) diet, group average
# [20] = Sodium Selenate (1.9 μg) diet, males, average
# [21] = Sodium Selenate (1.9 μg) diet, males, individual rats
smiles,measurement,setting,value
[Se] [selenium],Maximum Tolerable Intake,[1]; adult women and adult men,400 µg/day
same,Selenium content of a food diet that could produce toxic effects,"[1]; estimated, per kg of food diet",more than 1 mg per kg
"C[Se]C[C@H](N)C(=O)O [SMSeC, seleno-methyl-selenocysteine]",Delta body weight,[2]; [5],168.3
same,Final body weight,[2]; [5],216.7
same,Delta body weight,[2]; [6],161.1 and 160.2 and 172.4 and 179.3
same,Final body weight,[2]; [6],208.6 and 210.3 and 222.2 and 225.5
same,Delta body weight,[2]; [7],211.5
same,Final body weight,[2]; [7],260.4
same,Delta body weight,[2]; [8],254.7
same,Final body weight,[2]; [8],304
same,Delta body weight,[2]; [9],245.1 and 256.8 and 275.8 and 241.0
same,Final body weight,[2]; [9],296.5 and 308.7 and 322.6 and 287.9
same,"Relative abundance [UA] of the individual, band R-2",[3],29498.0 ± 3911.5 UA
same,"Relative abundance [UA] of the individual, band R-3",[3],22594.0 ± 4569.2 UA
same,"Relative abundance [UA] of the individual, band R-4",[3],21994.3 ± 4211.0 UA
same,"Relative abundance [UA] of the individual, band R-5",[3],25682.7 ± 3620.9 UA
same,"Relative abundance [UA] of the individual, band R-6",[3],30751.3 ± 2974.0 UA
same,"Relative abundance [UA] of the individual, band R-7",[3],37560.8 ± 2955.7 UA
same,"Relative abundance [UA] of the individual, band R-8",[3],28124.3 ± 6466.9 UA
same,"Relative abundance [UA] of the individual, band R-9",[3],41211.3 ± 5952.4 UA
same,"Relative abundance [UA] of the individual, band R-10",[3],14666.6 ± 3087.2 UA
same,"Relative abundance [UA] of the individual, band R-11",[3],13964.4 ± 1750.0 UA
same,"Relative abundance [UA] of the individual, band R-12",[3],52073.0 ± 4308.2 UA
same,"Relative abundance [UA] of the individual, band R-13",[3],15414.1 ± 5568.9 UA
same,"Relative abundance [UA] of the individual, band R-14",[3],41436.1 ± 2906.9 UA
same,"Relative abundance [UA] of the individual, band R-15",[3],12009.5 ± 6939.5 UA
same,Relative abundance of band R-2 (H inhibitory factor complement) of the pattern,[4]; [10],28498 ± 3911.5 arbitrary units
same,Relative abundance of band R-3 (H inhibitory factor complement) of the pattern,[4]; [10],20594.0 ± 4569.2 arbitrary units
same,Relative abundance of band R-4 (CRA f isophorm plasminogen) of the pattern,[4]; [10],21804.3 ± 4211.0 arbitrary units
same,Relative abundance of band R-5 (LOC366747 Protein) of the pattern,[4]; [10],24582.7 ± 3620.9 arbitrary units
same,Relative abundance of band R-6 (4a component complement) of the pattern,[4]; [10],29751.3 ± 2974.0 arbitrary units
same,Relative abundance of band R-7 (Albumina) of the pattern,[4]; [10],37380.8 ± 2955.7 arbitrary units
same,Relative abundance of band R-8 (Da 1-24) of the pattern,[4]; [10],27224.3 ± 6466.9 arbitrary units
same,Relative abundance of band R-9 (2C chainCregion Ig Gamma) of the pattern,[4]; [10],40411.3 ± 5952.4 arbitrary units
same,Relative abundance of band R-10 (Precursor β-2-glicoprotein 1) of the pattern,[4]; [10],14366.6 ± 3087.2 arbitrary units
same,Relative abundance of band R-11 (2A Region C Ig Gamma chain) of the pattern,[4]; [10],14644.4 ± 1750.0 arbitrary units and 14064.4 ± 1750.0 arbitrary units
same,Relative abundance of band R-12 (4a component complement) of the pattern,[4]; [10],51973.0 ± 4308.2 arbitrary units
same,Relative abundance of band R-13 (Heavy chain H4 inter α inhibitor) of the pattern,[4]; [10],13414.1 ± 5568.9 arbitrary units
same,Relative abundance of band R-14 (Ig Kappa precursor) of the pattern,[4]; [10],40436.1 ± 2906.9 arbitrary units
same,Relative abundance of band R-15 (H apolipoprotein) of the pattern,[4]; [10],11309.5 ± 6939.5 arbitrary units
same,Concentration of protein in band R-10 compared with basal diet plus 0.15 μg sodium selenate per gram of diet,[4]; [11],significantly higher
same,Concentration of protein in band R-11 compared with basal diet plus 0.15 μg sodium selenate per gram of diet,[4]; [11],significantly higher
same,Concentration of protein in band R-12 compared with basal diet plus 0.15 μg sodium selenate per gram of diet,[4]; [11],significantly higher
same,Concentration of protein in band R-13 compared with basal diet plus 0.15 μg sodium selenate per gram of diet,[4]; [11],significantly higher
same,Concentration of protein in band R-15 compared with basal diet plus 0.15 μg sodium selenate per gram of diet,[4]; [11],significantly higher
same,Concentration of protein in band R-3 compared with both control groups,"[4]; rats fed 1.9 μg seleno-methyl-selenocysteine per gram of diet, Student t-test, confidence interval 95%",significantly higher
"O=[Se](=O)(O)O [Sodium Selenate, sodium selenate]",Delta body weight,[2]; [12],151.1
same,Final body weight,[2]; [12],199.5
same,Delta body weight,[2]; [13],141.6 and 135.5 and 139.3 and 187.8
same,Final body weight,[2]; [13],189.8 and 184.2 and 188.3 and 235.7
same,Delta body weight,[2]; [14],207.8
same,Final body weight,[2]; [14],256.7
same,Delta body weight,[2]; [15],264.6
same,Final body weight,[2]; [15],313.8
same,Delta body weight,[2]; [16],266.6 and 275.8 and 271.2 and 244.9
same,Final body weight,[2]; [16],316.8 and 326.3 and 318.5 and 293.5
same,Delta body weight,[2]; [17],161.2
same,Final body weight,[2]; [17],209.7
same,Delta body weight,[2]; [18],180.4 and 161.3 and 145.1 and 158.1
same,Final body weight,[2]; [18],228.6 and 210 and 194.1 and 206
same,Delta body weight,[2]; [19],218.0
same,Final body weight,[2]; [19],266.9
same,Delta body weight,[2]; [20],274.8
same,Final body weight,[2]; [20],324
same,Delta body weight,[2]; [21],293.1 and 278.3 and 291.9 and 235.9
same,Final body weight,[2]; [21],343.3 and 328.8 and 339.2 and 284.5
